From patent publication US20140107104A1, “COMBINATION MEDICINE FOR TREATMENT OF DEPRESSION” (priority 2011, published 2014) come the findings set out here.

Experiment [1] has as its system hippocampal dentate gyrus. Description: RT-PCR analysis of mRNA expression in hippocampal dentate gyrus after antidepressant pellet. In kind it is in vivo, mice. The settings on record: subcutaneously implanted pellet, 14 days, compared to placebo pellet. As to the method:
The method of subcutaneously implanting each pellet was as follows: a small incision about 5 mm was made in the neck skin of each mouse, a pellet was inserted through the incision to a depth of about 2 cm with tweezers for indwelling, and the skin was sutured.
Total RNA was isolated from the hippocampal dentate gyrus of the mice treated with the fluoxetine pellet or the control pellet. First strand cDNA was prepared from 1 ug of DNaseI-treated total RNA using a reverse transcriptase QuantiTect (registered trademark, Qiagen, Valencia, Calif.). Gene expression was quantified using SYBR green (2×SYBR Green PCR Master Mix; Qiagen, Valencia, Calif.) according to the manufacturer's directions. Quantitative RT-PCR was performed using LightCycler (registered trademark) 480II real-time PCR detection system (Roche, Mannheim, Germany) in the following conditions (95° C.: 5 minutes; and then 40 cycles of 95° C.: 10 seconds, 60° C.: 30 seconds, and 65° C.: 1 minute). Beta-actin was amplified in all the samples for standardization of expression data. Whether or not the DNA region of each targeted gene was amplified was confirmed by melting curve analysis after RT-PCR (95° C.: 1 minute, 55° C.: 30 seconds, 95° C.: 30 seconds). The Ct value used was the average of 2 RT-PCR results.
Experiments were conducted in the same manner as in “1.

For the next experiment, the system named is dentate gyrus. Put plainly: Microarray analysis of genes expressed in the dentate gyrus. The conditions noted are these: for expression of depression-related gene group: SKF81297 3 mg/(kg day) i.p. days 10-14; for mRNA expression level Alox8: control C 2.02; for mRNA expression level Drd4: control C 29.28; for mRNA expression level Prir (second line): control C 36.03; for mRNA expression level Drd1a: control C 46.26; for mRNA expression level Prir (first line): control C 48.03; for mRNA expression level S100a4: control C 337.31; for mRNA expression level Anxa2: control C 483.27; for mRNA expression level Rgs4 (second line): control C 687.50; for mRNA expression level Htr4: control C 723.76; for mRNA expression level Furin: control C 742.58; for mRNA expression level Gfap (third line): control C 1308.81; for mRNA expression level Bdnf: control C 1312.91; for mRNA expression level Rgs4 (first line): control C 2347.43; for mRNA expression level Gfap (second line): control C 3008.11. Type of experiment: in vivo, mice. As to the method: Then, microarray analysis of genes expressed in the dentate gyrus of these mice was performed.
The microarray analysis was performed as follows. Total RNA was isolated from the hippocampus of each mouse by TRIzol method (Invitrogen, Carlsbad, Calif.) and then purified using an RNeasy column (Qiagen, Valencia, Calif.). Double strand cDNA was synthesized from the total RNA, and in vitro transcription reaction was performed using biotin-labeled RNA prepared from the cDNA. The labeled RNA was hybridized with Mouse Genome 430 2.0 Array (Affymetrix, Santa Clara, Calif.) comprising specific probe sets, and washing was performed according to the manufacturer's recommendations. The hybridized probe array was stained with streptoavidin conjugate phycoerythrin, and each GeneChip was scanned using Affymetrix GeneChip scanner 3000 (GCS3000). GeneChip analysis was performed using Microarray Analysis Suite version 5.0.

Another experiment relates to dopamine D1 receptor. Put plainly: Western blotting of dopamine D1 receptor protein in hippocampal dentate gyrus. In kind it is in vivo, mice. The settings on record: fluoxetine pellet 14 days. From the text: The samples isolated from the hippocampal dentate gyrus of mice treated with a fluoxetine pellet or a control pellet were electrophoresed using acrylamide gel, and separated proteins were electrically transferred to a nitrocellulose membrane. The D1 receptor protein transferred to the membrane was immunologically detected using a D1 receptor antibody. In the immunological detection, Odyssey near-infrared fluorescent imaging system (LI-COR Biosciences, Lincoln, Nebr.) was used.

The subject of experiment [2] is dopamine D1 receptor signaling. Description: Dopamine D1 receptor signaling in slices of the hippocampal dentate gyrus (phosphorylation of DARPP-32 and ERK). Type of experiment: cell-based, mice. The protocol:
Harvested mouse brain was kept cool in ice-cooled and oxygenated Krebs-HCO3^− buffer, and using vibratome VT1000S (Leica Microsystems, Nussloch, Germany), 350-micrometer-thick continuous coronal slices were prepared. From the coronal slices, slices of the hippocampal dentate gyrus were cut out and used for experiments. Each slice of the hippocampal dentate gyrus was preincubated in 2 mL of Krebs-HCO3^− buffer for 60 minutes and treated with a dopamine D1 receptor agonist, namely SKF81297, and dopamine D1 receptor signaling was analyzed. As an indicator of dopamine D1 receptor signaling, phosphorylation of DARPP-32 (Thr34, PKA site) and of ERK was analyzed. The phosphorylation was analyzed by western blotting with a phosphorylation state-specific antibody.

Another experiment deals with dopamine D1 receptor-GFP. Description: Immunohistochemical analysis of dentate gyrus of dopamine D1 receptor-GFP mice. In kind it is in vivo. The settings on record: fluoxetine pellet 14 days vs placebo pellet. The protocol:
Each mouse was anesthetized with sodium pentobarbital and perfused with 4% paraformaldehyde (PFA) in 0.1 M phosphate buffered saline (PBS). The brain was removed and subjected to immersion fixation in the same fixing fluid at 4° C. for another 2 hours and […] frontal-plane sections were prepared using a cryostat (Leica). The sections were washed with tris buffered saline (pH 7.4) containing Tween 20. For immunostaining, frozen sections were incubated with the following primary antibody: rabbit anti-calbindin D28K polyclonal antibody (1:3000 dilution; SWANT) at 4° C. for 18 hours. The anti-calbindin D28K polyclonal antibody is a maturation marker for granule cells. For detection of antigen localization, the sections were incubated with Alexa Fluor (594)-conjugate goat anti-rabbit IgG (1:400 dilution; Invitrogen) at 4° C. for 2 hours. Further, for nuclear staining, the sections were stained with DAPI. Fluorescent signals were each analyzed using a confocal laser scanning microscope (LSM5 Pascal, Zeiss).

Where [3] appears, read: fluoxetine pellet 15 mg/(kg day)x14 days.

Consider `CN(C)CCCN1c2ccccc2CCc2ccccc21` [imipramine], for which, in experiment [1], the “mRNA expression of BDNF” value was “increased”, the “mRNA expression of calbindin” value was “less mRNA expression”, the “mRNA expression of desmoplakin” value is “less mRNA expression” and the “mRNA expression of dopamine D1 receptor” value was “increase in the mRNA expression”. Also, in experiment [1], the “mRNA expression of interleukin-1 receptor” value was “less mRNA expression” and the “mRNA expression of tryptophan 2,3-dioxygenase” value is listed as “less mRNA expression”.
In the case of `CNCCC(Oc1ccc(C(F)(F)F)cc1)c1ccccc1` (stereo not shown) [fluoxetine], in the experiment with dentate gyrus (setting [3]), the “expression of depression-related gene group” value was “neither the SKF81297 sole administration nor the fluoxetine sole administration affected the expression of genes”. In the experiment on dentate gyrus (same regimen), the “mRNA expression level Alox8” value was determined as 2.11, the “mRNA expression level Drd4” value came out at 35.57, the “mRNA expression level Prir (second line)” value is 84.69 and the “mRNA expression level Drd1a” value was 114.21. Besides, in the experiment with dentate gyrus (same regimen), the “mRNA expression level Prir (first line)” value is 48.69, the “mRNA expression level S100a4” value was 353.74, the “mRNA expression level Anxa2” value was 568.07 and the “mRNA expression level Rgs4 (second line)” value was 1215.07. Further, in the experiment with dentate gyrus (same regimen), the “mRNA expression level Htr4” value worked out at 903.85, the “mRNA expression level Furin” value is on record as 799.17, the “mRNA expression level Gfap (third line)” value was found to be 1757.42 and the “mRNA expression level Bdnf” value stood at 1495.90. Moreover, in the experiment with dentate gyrus (same regimen), the “mRNA expression level Rgs4 (first line)” value is 3659.58 and the “mRNA expression level Gfap (second line)” value worked out at 3185.26. Further, the “protein expression of dopamine D1 receptor as compared to placebo pellet” value in the experiment on dopamine D1 receptor was 4 times. Further, in experiment [1], the “mRNA expression of calbindin” value is “less mRNA expression”, the “mRNA expression of desmoplakin” value is “less mRNA expression”, the “mRNA expression of dopamine D1 receptor” value is given as “increase in the mRNA expression” and the “mRNA expression of interleukin-1 receptor” value is on record as “less mRNA expression”. Further, the “mRNA expression of tryptophan 2,3-dioxygenase” value in experiment [1] was “less mRNA expression”. Further, the “dopamine D1 receptor signaling” value in experiment [2] (fluoxetine-induced dematured dentate gyrus slices) is on record as “doubled”. In experiment [2] (slices from mice with fluoxetine pellet 14 days vs placebo pellet), the “phosphorylation of ERK induced by SKF81297” value is on record as “increased”. Moreover, the “phosphorylation of DARPP-32 (Thr34, PKA site) induced by SKF81297” value in experiment [2] (slices from mice with fluoxetine pellet 14 days vs placebo pellet, SKF81297 1 uM or 10 uM) is “increased”. Further, in the experiment on dopamine D1 receptor-GFP, the “expression of calbindin in granule cells” value is “lowered” and the “expression of dopamine D1 receptor-GFP in granule cells” value is “significantly increased expression”.
As for `Br.Oc1cc2c(c(Cl)c1O)CCNC[C@@H]2c1ccccc1` [SKF81297, R-(+)-6-chloro-7,8-dihydroxy-1-phenyl-2,3,4,5-tetrahydro-1H-3-benzazepine hydrobromide], in the experiment on dentate gyrus (setting [3]), the “expression of depression-related gene group” value is “neither the SKF81297 sole administration nor the fluoxetine sole administration affected the expression of genes”. Besides, the “mRNA expression level S100a10” value in the experiment on dentate gyrus (fluoxetine pellet 15 mg/(kg day)x14 days, SKF81297 3 mg/(kg day) i.p.x5 days, control C 461.56) is 469.21. In the experiment on dentate gyrus (same regimen), the “mRNA expression level Alox8” value is given as 2.12, the “mRNA expression level Drd4” value is recorded as 30.92, the “mRNA expression level Prir (second line)” value is given as 160.90 and the “mRNA expression level Drd1a” value is 43.87. Also, in the experiment on dentate gyrus (same regimen), the “mRNA expression level Prir (first line)” value is listed as 61.94, the “mRNA expression level S100a4” value was found to be 389.62, the “mRNA expression level Anxa2” value was determined as 684.27 and the “mRNA expression level Rgs4 (second line)” value is 1053.99. For the same molecule, in the experiment on dentate gyrus (same regimen), the “mRNA expression level Htr4” value is reported as 852.76, the “mRNA expression level Furin” value was 837.03, the “mRNA expression level Gfap (third line)” value is on record as 1962.44 and the “mRNA expression level Bdnf” value is 1516.05. In the experiment with dentate gyrus (same regimen), the “mRNA expression level Rgs4 (first line)” value stood at 2742.21 and the “mRNA expression level Gfap (second line)” value was determined as 4062.15. The “mRNA expression level Gfap (first line)” value in the experiment with dentate gyrus (same regimen, control C […]) stood at 140.79.
